Reference: patent publication US20260125382A1, “COMPOUNDS FOR INHIBITING OR DEGRADING CDK2 AND/OR CDK9 AND MEDICINAL USE THEREOF” (KOREA RESEARCH INSTITUTE OF CHEMICAL TECHNOLOGY, priority 2022, published 2026)

What was measured:
CDK2 = target: T1, CDK2 (Homo sapiens, UniProt P24941); test: CDK protein degradation activity (Western blotting), CDK2; assay type: cell-based; conditions: MDA-MB-231 cells, 16 hours, Western blot
T1 construct: endogenous in cells; host or cells: MDA-MB-231
Outline: (§1)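 CDK2 and CDK9 protein levels measured by Western blot with densitometry, using tubulin as loading reference. Cells were MDA-MB-231, exposed for 16 h to 100 nM, 1 μM or 10 μM compound or to DMSO.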

CDK9 = target: T2, CDK9 (Homo sapiens, UniProt P50750); test: CDK protein degradation activity (Western blotting), CDK9; assay type: cell-based; conditions: MDA-MB-231 cells, 16 hours, Western blot
T2 construct: endogenous in cells; host or cells: MDA-MB-231
Outline: as §1

T2 sequence (P50750 whole entry): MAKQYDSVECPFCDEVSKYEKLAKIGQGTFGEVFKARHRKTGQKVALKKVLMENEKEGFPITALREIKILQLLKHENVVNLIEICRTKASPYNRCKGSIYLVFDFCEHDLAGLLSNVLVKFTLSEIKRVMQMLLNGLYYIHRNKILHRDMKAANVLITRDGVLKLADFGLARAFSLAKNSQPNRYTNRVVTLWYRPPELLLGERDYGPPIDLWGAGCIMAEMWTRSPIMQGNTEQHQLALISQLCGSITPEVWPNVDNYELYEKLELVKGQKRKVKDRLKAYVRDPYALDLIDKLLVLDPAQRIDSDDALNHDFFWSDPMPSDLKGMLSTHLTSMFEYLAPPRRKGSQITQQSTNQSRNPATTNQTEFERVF

For `O=C1CC[C@H](N2C(=O)c3cccc(N4CCC(CN5CCC(c6ccc(Nc7ncnc8c7ncn8C7CC(NC(=O)Cc8ccccc8)C7)cc6)CC5)CC4)c3C2=O)C(=O)N1` (stereo partly drawn) [Compound 291, N-((1s,3s)-3-(6-((4-(1-((1-(2-(2,6-dioxopiperidin-3-yl)-1,3-dioxoisoindolin-4-yl)piperidin-4-yl)methyl)piperidin-4-yl)phenyl)amino)-9H-purin-9-yl)cyclobutyl)-2-phenylacetamide], the “Enzyme degradation CDK2 (% remaining) @ 0.1 μM” value (CDK2) was 20/20/20%, the “Enzyme degradation CDK2 (% remaining) @ 1 μM” value (CDK2) was 20/20/20% and the “Enzyme degradation CDK2 (% remaining) @ 10 μM” value (CDK2) was 20/20/20%. For the same molecule, the “Enzyme degradation CDK9 (% remaining) @ 0.1 μM” value (CDK9) was 20%, the “Enzyme degradation CDK9 (% remaining) @ 1 μM” value (CDK9) was 0% and the “Enzyme degradation CDK9 (% remaining) @ 10 μM” value (CDK9) was 0%.

In the case of `Cc1cccc(C(=O)NC2CC(n3cnc4c(NCc5ccc(OCCCN6CCN(C(=O)CNc7ccc8c(c7)C(=O)N([C@H]7CCC(=O)NC7=O)C8=O)CC6)cc5)ncnc43)C2)n1` (stereo partly drawn) [Compound 114, N-((1s,3s)-3-(6-((4-(3-(4-((2-(2,6-dioxopiperidin-3-yl)-1,3-dioxoisoindolin-5-yl)glycyl)piperazin-1-yl)propoxy)benzyl)amino)-9H-purin-9-yl)cyclobutyl)-6-methylpicolinamide], the “Enzyme degradation CDK2 (% remaining) @ 0.1 μM” value (CDK2) is reported as 30%, the “Enzyme degradation CDK2 (% remaining) @ 1 μM” value (CDK2) is reported as 40% and the “Enzyme degradation CDK2 (% remaining) @ 10 μM” value (CDK2) is reported as 50%. For the same molecule, the “Enzyme degradation CDK9 (% remaining) @ 0.1 μM” value (CDK9) was 0/0/0%, the “Enzyme degradation CDK9 (% remaining) @ 1 μM” value (CDK9) was 0/0/0% and the “Enzyme degradation CDK9 (% remaining) @ 10 μM” value (CDK9) was 0/0/0%.

`O=C1CC[C@H](N2C(=O)c3ccc(CCCCN4CCC(N5CCN(c6ccc(Nc7ncnc8c7ncn8C7CC(NC(=O)Cc8ccccc8)C7)cc6)CC5)CC4)cc3C2=O)C(=O)N1` (stereo partly drawn) [Compound 408, N-((1s,3s)-3-(6-((4-(4-(1-(4-(2-(2,6-dioxopiperidin-3-yl)-1,3-dioxoisoindolin-5-yl)butyl)piperidin-4-yl)piperazin-1-yl)phenyl)amino)-9H-purin-9-yl)cyclobutyl)-2-phenylacetamide] was tested, and the “Enzyme degradation CDK2 (% remaining) @ 0.1 μM” value (CDK2) was 40%, the “Enzyme degradation CDK2 (% remaining) @ 1 μM” value (CDK2) was 30% and the “Enzyme degradation CDK2 (% remaining) @ 10 μM” value (CDK2) was 30%. The “Enzyme degradation CDK9 (% remaining) @ 0.1 μM” value (CDK9) was 20%, the “Enzyme degradation CDK9 (% remaining) @ 1 μM” value (CDK9) was 10% and the “Enzyme degradation CDK9 (% remaining) @ 10 μM” value (CDK9) was 10%.

`Cc1cccc(C(=O)NC2CC(n3cnc4c(NCc5ccc(N6CCN(CC7CCN(C(=O)CNc8cccc9c8C(=O)N([C@H]8CCC(=O)NC8=O)C9=O)CC7)CC6)cc5)ncnc43)C2)n1` (stereo partly drawn) [Compound 152, N-((1s,3s)-3-(6-((4-(4-((1-((2-(2,6-dioxopiperidin-3-yl)-1,3-dioxoisoindolin-4-yl)glycyl)piperidin-4-yl)methyl)piperazin-1-yl)benzyl)amino)-9H-purin-9-yl)cyclobutyl)-6-methylpicolinamide] was tested, and the “Enzyme degradation CDK2 (% remaining) @ 0.1 μM” value (CDK2) was 10/10/10%, the “Enzyme degradation CDK2 (% remaining) @ 1 μM” value (CDK2) was 10/10/10% and the “Enzyme degradation CDK2 (% remaining) @ 10 μM” value (CDK2) was 10/10/10%. For the same molecule, the “Enzyme degradation CDK9 (% remaining) @ 0.1 μM” value (CDK9) was 0/0/0%, the “Enzyme degradation CDK9 (% remaining) @ 1 μM” value (CDK9) was 0/0/0% and the “Enzyme degradation CDK9 (% remaining) @ 10 μM” value (CDK9) was 0/0/0%.

For `O=C1CC[C@H](N2C(=O)c3ccc(N4CC(C(=O)N5CCC(CN6CCN(c7ccc(Nc8ncnc9c8ncn9C8CC(NC(=O)c9cccc(F)n9)C8)cc7)CC6)CC5)C4)cc3C2=O)C(=O)N1` (stereo partly drawn) [Compound 466, N-((1s,3s)-3-(6-((4-(4-((1-(1-(2-(2,6-dioxopiperidin-3-yl)-1,3-dioxoisoindolin-5-yl)azetidin-3-carbonyl)piperidin-4-yl)methyl)piperazin-1-yl)phenyl)amino)-9H-purin-9-yl)cyclobutyl)-6-fluoropicolinamide], the “Enzyme degradation CDK2 (% remaining) @ 0.1 μM” value (CDK2) was 30%, the “Enzyme degradation CDK2 (% remaining) @ 1 μM” value (CDK2) was 20% and the “Enzyme degradation CDK2 (% remaining) @ 10 μM” value (CDK2) was 20%. The “Enzyme degradation CDK9 (% remaining) @ 0.1 μM” value (CDK9) was 0/0/0%, the “Enzyme degradation CDK9 (% remaining) @ 1 μM” value (CDK9) was 0/0/0% and the “Enzyme degradation CDK9 (% remaining) @ 10 μM” value (CDK9) was 0/0/0%.

With `Cc1cccc(C(=O)N[C@H]2C[C@@H](n3cnc4c(NC5CCN(C(=O)CC6CCN(C(=O)COc7cccc8c7C(=O)N([C@H]7CCC(=O)NC7=O)C8=O)CC6)CC5)ncnc43)C2)n1` [Compound 50, N-((1s,3s)-3-(6-((1-(2-(1-(2-((2-(2,6-dioxopiperidin-3-yl)-1,3-dioxoisoindolin-4-yl)oxy)acetyl)piperidin-4-yl)acetyl)piperidin-4-yl)amino)-9H-purin-9-yl)cyclobutyl)-6-methylpicolinamide] the “Enzyme degradation CDK2 (% remaining) @ 0.1 μM” value (CDK2) was 80%, the “Enzyme degradation CDK2 (% remaining) @ 1 μM” value (CDK2) was 40% and the “Enzyme degradation CDK2 (% remaining) @ 10 μM” value (CDK2) was 10%. For the same molecule, the “Enzyme degradation CDK9 (% remaining) @ 0.1 μM” value (CDK9) was 90%, the “Enzyme degradation CDK9 (% remaining) @ 1 μM” value (CDK9) was 60% and the “Enzyme degradation CDK9 (% remaining) @ 10 μM” value (CDK9) was 20%.

`O=C1CC[C@H](N2C(=O)c3cc(F)c(N4CCC(C(=O)N5CCC(CN6CCN(c7ccc(Nc8ncnc9c8ncn9C8CC(NC(=O)c9cccc(F)n9)C8)cc7)CC6)CC5)CC4)cc3C2=O)C(=O)N1` (stereo partly drawn) [Compound 468, N-((1s,3s)-3-(6-((4-(4-((1-(1-(2-(2,6-dioxopiperidin-3-yl)-6-fluoro-1,3-dioxoisoindolin-5-yl)piperidin-4-carbonyl)piperidin-4-yl)methyl)piperazin-1-yl)phenyl)amino)-9H-purin-9-yl)cyclobutyl)-6-fluoropicolinamide] was tested, and the “Enzyme degradation CDK2 (% remaining) @ 0.1 μM” value (CDK2) was 50%, the “Enzyme degradation CDK2 (% remaining) @ 1 μM” value (CDK2) was 40% and the “Enzyme degradation CDK2 (% remaining) @ 10 μM” value (CDK2) was 40%. The “Enzyme degradation CDK9 (% remaining) @ 0.1 μM” value (CDK9) was 0/0/0%, the “Enzyme degradation CDK9 (% remaining) @ 1 μM” value (CDK9) was 0/0/0% and the “Enzyme degradation CDK9 (% remaining) @ 10 μM” value (CDK9) was 0/0/0%.

For `O=C1CC[C@H](N2C(=O)c3cc(F)c(N4CCC(C(=O)N5CCC6(CC5)CC(N5CCN(c7ccc(Nc8ncnc9c8ncn9C8CC(NC(=O)Cc9ccccc9)C8)cc7)CC5)C6)CC4)cc3C2=O)C(=O)N1` (stereo partly drawn) [Compound 460, N-((1s,3s)-3-(6-((4-(4-(7-(1-(2-(2,6-dioxopiperidin-3-yl)-6-fluoro-1,3-dioxoisoindolin-5-yl)piperidin-4-carbonyl)-7-azaspiro[3.5]nonan-2-yl)piperazin-1-yl)phenyl)amino)-9H-purin-9-yl)cyclobutyl)-2-phenylacetamide], the “Enzyme degradation CDK2 (% remaining) @ 0.1 μM” value (CDK2) was 40/40/40%, the “Enzyme degradation CDK2 (% remaining) @ 1 μM” value (CDK2) was 40/40/40% and the “Enzyme degradation CDK2 (% remaining) @ 10 μM” value (CDK2) was 40/40/40%. For the same molecule, the “Enzyme degradation CDK9 (% remaining) @ 0.1 μM” value (CDK9) was 0/0/0%, the “Enzyme degradation CDK9 (% remaining) @ 1 μM” value (CDK9) was 0/0/0% and the “Enzyme degradation CDK9 (% remaining) @ 10 μM” value (CDK9) was 0/0/0%.

With `O=C1CC[C@H](N2C(=O)c3cc(F)c(N4CCC(CN5CCN(c6ccc(Nc7ncnc8c7ncn8C7CC(NC(=O)c8cccc(F)n8)C7)cc6)CC5)CC4)cc3C2=O)C(=O)N1` (stereo partly drawn) [Compound 428, N-((1s,3s)-3-(6-((4-(4-((1-(2-(2,6-dioxopiperidin-3-yl)-6-fluoro-1,3-dioxoisoindolin-5-yl)piperidin-4-yl)methyl)piperazin-1-yl)phenyl)amino)-9H-purin-9-yl)cyclobutyl)-6-fluoropicolinamide] the “Enzyme degradation CDK2 (% remaining) @ 0.1 μM” value (CDK2) was 10/10/10%, the “Enzyme degradation CDK2 (% remaining) @ 1 μM” value (CDK2) was 10/10/10% and the “Enzyme degradation CDK2 (% remaining) @ 10 μM” value (CDK2) was 10/10/10%. The “Enzyme degradation CDK9 (% remaining) @ 0.1 μM” value (CDK9) was 0/0/0%, the “Enzyme degradation CDK9 (% remaining) @ 1 μM” value (CDK9) was 0/0/0% and the “Enzyme degradation CDK9 (% remaining) @ 10 μM” value (CDK9) was 0/0/0%.

For `Cc1cccc(C(=O)N[C@H]2C[C@@H](n3cnc4c(NC5CCN(CCOC6CCN(c7ccc8c(c7)C(=O)N([C@H]7CCC(=O)NC7=O)C8=O)CC6)CC5)ncnc43)C2)n1` [Compound 47, N-((1s,3s)-3-(6-((1-(2-((1-(2-(2,6-dioxopiperidin-3-yl)-1,3-dioxoisoindolin-5-yl)piperidin-4-yl)oxy)ethyl)piperidin-4-yl)amino)-9H-purin-9-yl)cyclobutyl)-6-methylpicolinamide], the “Enzyme degradation CDK2 (% remaining) @ 0.1 μM” value (CDK2) was 100/100/100%, the “Enzyme degradation CDK2 (% remaining) @ 1 μM” value (CDK2) was 100/100/100% and the “Enzyme degradation CDK2 (% remaining) @ 10 μM” value (CDK2) was 100/100/100%. The “Enzyme degradation CDK9 (% remaining) @ 0.1 μM” value (CDK9) was 40%, the “Enzyme degradation CDK9 (% remaining) @ 1 μM” value (CDK9) was 0% and the “Enzyme degradation CDK9 (% remaining) @ 10 μM” value (CDK9) was 0%.

`O=C1CC[C@@H](c2ccc(OCC(=O)N3CCC(CN4CCN(c5ccc(Nc6ncnc7c6ncn7C6CC(NC(=O)Cc7ccccc7)C6)cc5)CC4)CC3)cc2)C(=O)N1` (stereo partly drawn) [Compound 202, N-((1s,3s)-3-(6-((4-(4-((1-(2-(4-(2,6-dioxopiperidin-3-yl)phenoxy)acetyl)piperidin-4-yl)methyl)piperazin-1-yl)phenyl)amino)-9H-purin-9-yl)cyclobutyl)-2-phenylacetamide] was tested, and the “Enzyme degradation CDK2 (% remaining) @ 0.1 μM” value (CDK2) was 30%, the “Enzyme degradation CDK2 (% remaining) @ 1 μM” value (CDK2) was 20% and the “Enzyme degradation CDK2 (% remaining) @ 10 μM” value (CDK2) was 40%. For the same molecule, the “Enzyme degradation CDK9 (% remaining) @ 0.1 μM” value (CDK9) was 10%, the “Enzyme degradation CDK9 (% remaining) @ 1 μM” value (CDK9) was 0% and the “Enzyme degradation CDK9 (% remaining) @ 10 μM” value (CDK9) was 0%.

For `O=C1CC[C@H](N2C(=O)c3ccc(N4CC(C(=O)N5CCC(CCN6CCN(c7ccc(Nc8ncnc9c8ncn9C8CC(NC(=O)Cc9ccccc9)C8)cc7)CC6)CC5)C4)cc3C2=O)C(=O)N1` (stereo partly drawn) [Compound 328, N-((1s,3s)-3-(6-((4-(4-(2-(1-(1-(2-(2,6-dioxopiperidin-3-yl)-1,3-dioxoisoindolin-5-yl)azetidin-3-carbonyl)piperidin-4-yl)ethyl)piperazin-1-yl)phenyl)amino)-9H-purin-9-yl)cyclobutyl)-2-phenylacetamide], the “Enzyme degradation CDK2 (% remaining) @ 0.1 μM” value (CDK2) was 40%, the “Enzyme degradation CDK2 (% remaining) @ 1 μM” value (CDK2) was 50% and the “Enzyme degradation CDK2 (% remaining) @ 10 μM” value (CDK2) was 40%. For the same molecule, the “Enzyme degradation CDK9 (% remaining) @ 0.1 μM” value (CDK9) was 0/0/0%, the “Enzyme degradation CDK9 (% remaining) @ 1 μM” value (CDK9) was 0/0/0% and the “Enzyme degradation CDK9 (% remaining) @ 10 μM” value (CDK9) was 0/0/0%.
